From patent publication US6809175B1, “Cadherin derived growth factor and its use” (Prof. Dr. Wolf-Georg Forssmann, priority 1997, dated 2004)

Experiments:
primary osteoblasts [1] = test: Proliferation assay on primary osteoblasts ([3H]thymidine or BrdU incorporation); format: cell-based; conditions: primary osteoblasts from fetal rat calvarias; serum-free medium with 1 mg/ml BSA; established for both native and synthetic peptide
Method: The isolation of OB-CDGF was based on its biological activity in a proliferation assay of the primary osteoblasts. Thus, aliquots of each of the individual chromatographic stages described under Example 1 were freeze-dried and then subjected to a biological assay. The fractions which gave a positive signal were respectively subjected to further purification.
The assay measures the proliferation of the cells after having been kept in serum-free medium with 1 mg/ml bovine serum albumin, adding the samples and determining the incorporation of [^3H]thymidine or bromode-oxyuranosine (Brdu) after a further 48 hours. As a positive control, factors promoting bone growth, such as IGF or angiotensin, or fetal calf serum (FCS) are employed.
The experiments were performed by analogy with Pfeilschifter et al., Endocrinology 126, 703, 1990.
The recovery of primary osteoblasts was effected by sequential digestive separation from fetal rat calvarias using collagenase to obtain 5 cell fractions. The pooled cell fractions 3-5 were cultured in vitro. […]
At the end of the incubation time, the cell cultures were washed three times with 0.9% saline, and then 100 μl of liquid scintillator (OptiPhase Super-mix®, Wallac) was added to each well. Subsequently, the radioactivity incorporated in the DNA was measured in a liquid scintillation counter (1450 MicroBeta®, Wallac) in cpm. […]

[2] = tested on: neonatal rat osteoblast monolayers; test: Binding assay of 125I-labeled OB-CDGF to osteoblasts; conditions: confluent layers and extracellular matrix of neonatal rat osteoblasts; 2 hours at 4° C.; FIG. 5
Method: The binding of the osteoproliferative peptides to neonatal rat osteoblast monolayers was effected with the use of ^125j-labeled peptides. Chloramine T was used for iodination. The specific activity of the peptides was 100,000 cpm/ng. The binding studies were performed on confluent layers and the extracellular matrix of a first passage of neonatal rat osteoblasts. The cells were incubated for 24 hours in serum-containing medium and then washed four times with PBS and incubated for 2 hoursat 4° C. in 250 μl of the assay buffer (20 mM HEPES, 0.1 mg/ml BSA, pH 7.0) with 80,000 cpm of the iodine-labeled peptide in the presence of different concentrations of the unlabeled peptide. The incubation buffer was then removed, and the cells washed four times with cold PBS and solubilized with 1 M NaOH. The cell-bound activity was determined using a gamma counter. The corresponding experimental results are represented in FIG. 5.

primary osteoblasts [3] = test: Intracellular calcium release in primary osteoblasts (Fura-2); format: cell-based, rat; conditions: single primary osteoblasts, Fura-2, fluorescence microscope; FIG. 6
Method: The intracellular signal chain for calcium^2+is measured on individual osteoblast cells. The intracellular Ca^2+activity of primary osteoblasts is measured with the Ca^2+-sensitive dye Fura-2 (Calbiochem, Bad Soden, Germany). The primary osteoblasts are cultured for one to three days on glass supports (diameter 30 mm) attached to a perfusion chamber of an inverted microscope (Axiomat IDC-UV, Zeiss, Gottingen, Germany). […]
The incubation is followed by an equilibration period of 10 to 15 min in which the cells are washed with KHB solution at 37° C. with a perfusion rate of about 5 ml/min. The Fura-2-charged primary osteoblasts are measured at 340, 360 and 380 nm with a high speed filter wheel (rotational speed 10 Hertz), a single-photon counter tube (Hamamatsu, Herrsching, Germany) and a xenon quartz lamp (XBO 75 W/OFR, Zeiss, Germany) as a light/impulse source. The Fura-2 emission is measured through a long-wave filter at 510 nm with an Ultrafluar 125 ×glycerol immersion lens. […] The ratio of photon emissions upon excitation at 340 and 380 nm is evaluated. […] The raw data are calculated, and 10 neighboring data points are averaged to obtain a time resolution of 1 Hz. The fluorescence at 360 nm is used to test calcium activity. All samples are dissolved in a phosphate buffer prior to the experiment and measured for at least 1 to 2 minutes. […]

MAP kinase = test: Western blot detection of intracellular MAP kinase in primary osteoblasts; format: cell-based, rat; conditions: primary osteoblasts incubated for different periods of time; FIG. 7
Method: As already shown under Example 5, intracellular calcium release can be induced on primary osteoblasts by incubation with CDGF. To further characterize this physiological response, the further intracellular signal pathway (downstream from calcium) was examined. One possible signal transduction cascade is the activation of MAP kinase, an enzyme which plays an essential role in the signal transduction from the cytoplasm into the nucleus. Signal transmission involves phosphorylation of the enzyme which can be detected with a specific antibody. Thus, this protein can be detected in a Western blot, which is a measure of both the phosphorylation and the expression due to the stimulus. Primary osteoblasts were incubated with cadherin or controls (FCS) for different periods of time. Expression of the enzyme (MAP kinase) in the cell was detected in the Western blot by the addition of the antibody. The results are represented in FIG. 7. […] The longer the stimulation with OB-CDGF, the more clearly could the band be discerned. […] Therefrom, it can be concluded that CDGF acts through calcium in a receptor-mediated way, and the further signal processing proceeds via MAP kinase.

[4] = tested on: primary cultures of neurons from spinal ganglia of chicken embryos; test: Survival-promoting effect on primary nerve cell cultures (cellular LDH level); format: cell-based; conditions: neurons from spinal ganglia of chicken embryos (E10); cellular LDH level after 48 hours
Method: Primary Nerve Cell Cultures From Spinal Ganglia of Chicken Embryos (Embryo-Onal Development E10)
The preparation and cultivation is performed as described by Borasio G. D., John J., Wittinghofer A., Barde Y.-A., Sendtner M., Heumann R. (1989), Neuron 2, 1087-1096. To determine survival-promoting effects of active substances, determination of the cellular LDH level after an incubation time of 48 hours is employed. To this end, the culture medium is removed by tapping out the plate. Only the vital cells remain adhered to the bottom of the plate and can then be determined. To determine the LDH level, the LDH cytotoxicity test kit of Boehringer Mannheim (BM) is employed.
The cultures were used in duplicate in 96-well microtitration plates. On each plate, an NGF calibration curve is established in parallel, and the biological activity of the substances is expressed in pg/ml of NGF equivalents. As a low-molecular weight reference, the starurosporin derivative K252a is used in a parallel test in a concentration of 300 nmol/l.

| Sequence | growth-promoting effect on primary osteoblasts (proliferation) (primary osteoblasts [1]) | displacement of labeled OB-CDGF by unlabeled OB-CDGF (specific binding) [2] | intracellular calcium concentration (primary osteoblasts [3]) | expression of intracellular MAP kinase (Western blot band) (MAP kinase) | survival-promoting effect on primary neurons [4] |
| --- | --- | --- | --- | --- | --- |
| ERRGHLRPSFHGHHEKGKEGQVLQRS (listed as Homo sapiens) [OB-CDGF, peptide purified from human hemofiltrate and resynthesized; human cadherin-11 precursor propeptide, amino acids 26-51] | dose-dependent growth-promoting effect | the level of specifically bound labeled OB-CDGF is reduced | intracellular calcium concentration increases | leads to expression of intracellular MAP kinase |  |
| TLSTPLSKRTSGFPAKKRALELSGNSKNELNRS (listed as Homo sapiens) [CAD6-CDGF, peptide corresponding to the CDGF region of cadherin-6] |  |  |  |  | survival-promoting effect on these primary neurons in a concentration-dependent way |
| QPQPQQTLATEPRENVIHLPGQRSHFQRV (listed as Homo sapiens) [BR-CDGF, peptide corresponding to the CDGF region of cadherin-12 (BR-cadherin; N-cadherin-2)] |  |  |  |  | survival-promoting effect on these primary neurons in a concentration-dependent way |
